Reference: US20160024597A1, “miRNAs AS THERAPEUTIC TARGETS IN CANCER” (The Research Foundation For The State University Of New York, priority 2009, published 2016)

Legend:
[1] = test system: CD133+hi/CD44+hi colon cancer stem-like cells; test: 5-FU cell death assay, FITC Annexin V and PI flow cytometry; assay type: cell-based; conditions: FACS-sorted CD133+hi/CD44+hi cells, lethal dose of 5-FU (100 μM) for 48 h
Description: HCT 116 (wt-p53) cells were sorted with multiparametric flow cytometry with BD FACS Aria cell sorter (Becton Dickinson, CA) at sterile conditions. Cells were prepared as described above and labeled with one or several markers conjugated anti-human CD133-PE (clone 105902; R&D Systems, MN); CD44-FITC (clone F10-44-2, R&D Systems, MN). Antibodies were diluted in buffer containing 5% BSA, 1 mM EDTA and 15-20% blocking reagent (Miltenyi Biotec, CA) to inhibit unspecific binding to non-target cells. After 15 min incubation at 4° C., stained cells were washed, resuspended in 500 μl of MACS buffer and sorted.
(§1) Colon cancer stem-like cells were transfected with 100 nM of LNA anti-miR-140 using Lipofectamine 2000 after FACS-sorting. […] The dead cells were determined by the fluorescein isothiocyanate (FITC) Annexin V and PI detection kit (BD Biosciences, Pharmingen, San Diego, Calif., USA). Briefly, cells were harvested and resuspended in 1× Annexin V binding and stained with Annexin V (5 μl) and PI (5 μl) for 15 min at room temperature in the dark. After additional 400 μl of binding buffer, cells were analyzed by flow cytometry. […]

[2] = test system: nonsorted control HCT 116 (wt-p53) cells; test: as above; assay type: cell-based, human; conditions: lethal dose of 5-FU (100 μM) for 48 h
Description: as §1

HDAC4 protein = HDAC4 protein expression by Western immunoblot after transfection; assay type: cell-based, human; conditions: U-2 OS (wt-p53) and HCT 116 (wt-p53) cells, 100 nM, 48 h after transfection
Description: (§2) Cells were plated in six-well plates at a density of 2×10^5 cells/well. The next day, cells were transfected with 100 nM of miR-140 precursor or non specific miR control (Ambion, Inc.) with Oligofectamine (Invitrogen Inc.) based on the manufacturer's instructions. Positive control siRNA specific against HDAC4 (ON-TARGET plus SMARTpool L-003497-00-0010, human HDAC4, NM 006037) was purchased from Dharmacon and transfected with Oligofectamine according to the manufacturer's protocols at a final concentration of 100 nM.
Forty-eight hours after transfection with miR-140 or miR control, cells were harvested and lysed in 1×RIPA buffer (Sigma) supplied with 100 uM PMSF (sigma) and proteinase inhibitor cocktail (Sigma). Equal amounts of protein were resolved by a 8% SDS-PAGE gels using the method of Laemmli (Laemmli, 1970), and transferred to polyvinylidene fluoride membranes (BIO-RAD Laboratories). The membranes were then blocked by 5% nonfat milk in TBST (Tris-buffered saline and 1% Tween-20) at room temperature for 1 h. The primary antibodies used for the analysis included goat anti-HDAC4 polyclonal Ab (1:1000, N-18), mouse anti-p53 mAb (1:1000, DO-1), mouse anti-p21 mAb(1:1000, F-5), mouse anti-tubulin mAb (1:1000, TU-02), all from Santa Cruz Biotechnology. […]

p53 = p53 expression by Western immunoblot; assay type: cell-based; conditions: U-2 OS (wt-p53) and HCT 116 (wt-p53) cells, 48 h after transfection
Description: (§3) Forty-eight hours after transfection with miR-140 or miR control, cells were harvested and lysed in 1×RIPA buffer (Sigma) supplied with 100 uM PMSF (sigma) and proteinase inhibitor cocktail (Sigma). Equal amounts of protein were resolved by a 8% SDS-PAGE gels using the method of Laemmli (Laemmli, 1970), and transferred to polyvinylidene fluoride membranes (BIO-RAD Laboratories). The membranes were then blocked by 5% nonfat milk in TBST (Tris-buffered saline and 1% Tween-20) at room temperature for 1 h. The primary antibodies used for the analysis included goat anti-HDAC4 polyclonal Ab (1:1000, N-18), mouse anti-p53 mAb (1:1000, DO-1), mouse anti-p21 mAb(1:1000, F-5), mouse anti-tubulin mAb (1:1000, TU-02), all from Santa Cruz Biotechnology. Horseradish peroxidase-conjugated antibodies against mouse or goat (1:1000, Santa Cruz Biotechnology) were used as the secondary antibodies. Protein bands were visualized with a chemiluminescence detection system using Super Signal substrate (Pierce).

HCT 116 (wt-p53) cells [3] = test: Cell cycle analysis by flow cytometry; assay type: cell-based, human; conditions: 100 nM, 36 h after transfection, vs miR control
Description: (§4) Cells were transfected with miR-140 and miR control described as above. At 36 h after transfection, cells were harvested and resuspended at 0.5-1×10^5 cells/ml in modified Krishan buffer (He, 2007; Tarasov, 2007), containing 0.1% sodium citrate and 0.3% NP-40 and kept at 4° C. Before being analyzed by flow cytometry, cells were treated with 0.02 mg/ml RNase H and stained with 0.05 mg/ml propidium iodide (Sigma).

HCT 116 (null-p53) cells [4] = test: Cell cycle analysis by flow cytometry; assay type: cell-based, human; conditions: 100 nM, 36 h after transfection
Description: as §4

HCT 116 (wt-p53) cells [5] = test: WST-1 cell proliferation assay after miR-140 transfection; assay type: cell-based, human; conditions: 100 nM transfected, day 5, n=6
Description: as §2
(§5) Cells were plated in 96-well plates with 6 repeats at 2,000 cells/well after transfection with miR-140 or miR control. Cells were cultured for 24, 48, 72, 96 and 120 h. The absorbance at 450 and 630 nm was measured after incubation with 10 μl of WST-1 for 1 h.

HCT 116 (null-p53) cells [6] = test: as above; assay type: cell-based, human; conditions: 100 nM transfected, day 5, n=6
Description: as §2, §5

HDAC4 mRNA = HDAC4 mRNA expression by real time qRT-PCR; assay type: cell-based, human; conditions: U-2 OS (wt-p53) and HCT 116 (wt-p53) cells, 100 nM, 24 hrs, GAPDH normalized
Description: as §2
Total RNA, including miRNAs, was isolated from cell lines or clinical specimens by using TRIzol reagent (Invitrogen, Inc.) according to the manufacturer's instructions to determine whether the cells were transfected with miR control, miR-140 or siHDAC4 at a final concentration of 100 nM for 24 hrs before RNA isolation.
cDNA was synthesized with the High Capacity cDNA synthesis kit (Applied Biosystems) using 2 μg of total RNA as the template and 10× random primers. Real-time qPCR analysis was done on the experimental mRNAs. The PCR primers and probes for HDAC4, and the internal control gene GAPDH were purchased from Applied Biosystems. qRT-PCR was done on an ABI 7500HT instrument under the following conditions: 50° C., 2 min for one cycle; 95° C., 10 min; 95° C., 15 s; 60° C., 1 min for 40 cycles (n=3).

U-2 OS cells (wt-p53) [7] = test: Cell cycle analysis by flow cytometry; assay type: cell-based; conditions: U-2 OS (wt-p53), 100 nM, 36 h after transfection, vs miR control
Description: as §4

MG63 cells (mut-p53) [8] = test: Cell cycle analysis by flow cytometry; assay type: cell-based; conditions: 100 nM, 36 h after transfection
Description: as §4

p21 = p21 expression by Western immunoblot; assay type: cell-based; conditions: U-2 OS (wt-p53) and HCT 116 (wt-p53) cells, 48 h after transfection
Description: as §3

U-2 OS cells (wt-p53) [9] = test: WST-1 cell proliferation assay after miR-140 transfection; assay type: cell-based; conditions: U-2 OS (wt-p53), 100 nM transfected, day 5, n=6
Description: as §2, §5

MG63 cells (mut-p53) [10] = test: as above; assay type: cell-based; conditions: 100 nM transfected, day 5, n=6
Description: as §2, §5

HCT 116 (wt-p53) cells [11] = test: Chemosensitivity assay to 5-fluorouracil (WST-1); assay type: cell-based, human; conditions: 100 nM transfected, 5-FU 2 to 100 μM for 72 h, vs miR control
Description: HCT 116 (wt-p53) cells were replated in 96-well plates at 2×10^3 cells per well in triplicate after transfected with miR-140, miR control or siRNA against HDAC4 in 100 μl of medium. After 24 h, 5-FU (ranged from 2 to 100 μM) was added and incubated for 72 h. WST-1 (10 μl) was added to each well. After 1 h incubation, absorbance was measured. Nonspecific miR was used as the negative control.

HCT 116 (wt-p53) cells [12] = test: Chemosensitivity assay to methotrexate (WST-1); assay type: cell-based, human; conditions: 100 nM transfected, methotrexate 10-1000 nM for 72 h, vs miR control
Description: U-2 OS and HCT 116 (wt-p53) cells were replated in 96-well plates at 2×10^3 cells/well in triplicate after transfected with miR-140, miR control, or siRNA against HDAC4 in 100 μl of medium. Twenty-four hours later, methotrexate (ranged from 10-1000 nM) was added and incubated for 72 h. Ten μl of WST-1 (Roche Applied Science) was added to each well. After 1 h incubation, absorbance was measured at 450 and 630 nm respectively. Non-specific miRNA was used as the negative control.

Compound	cell death [1]	cell death [2]	HDAC4 protein expression (HDAC4 protein)	p53 protein expression (p53)	G1 arrest (HCT 116 (wt-p53) cells [3])	G2 arrest (HCT 116 (wt-p53) cells [3])	G1 and G2 arrest (HCT 116 (null-p53) cells [4])	suppression of cellular proliferation (HCT 116 (wt-p53) cells [5])	suppression of cellular proliferation (HCT 116 (null-p53) cells [6])	HDAC4 mRNA expression (HDAC4 mRNA)	G1 arrest (U-2 OS cells (wt-p53) [7])	G2 arrest (U-2 OS cells (wt-p53) [7])	G1 and G2 arrest (MG63 cells (mut-p53) [8])	p21 protein expression (p21)	suppression of cellular proliferation (U-2 OS cells (wt-p53) [9])	suppression of cellular proliferation (MG63 cells (mut-p53) [10])	chemosensitivity to 5-fluorouracil of transfected cells (HCT 116 (wt-p53) cells [11])	chemosensitivity to methotrexate of transfected cells (HCT 116 (wt-p53) cells [12])
O=c1[nH]cc(F)c(=O)[nH]1 [5-FU, 5-fluorouracil]	about 20%	> 80%	–	–	–	–	–	–	–	–	–	–	–	–	–	–	–	–
miR-140: miR-140 precursor (Ambion) transfected at 100 nM to overexpress human miR-140 (SEQ ID NO:1/2) (chain 1 AGUGGUUUUACCUAUGGUAG; chain 2 CAGUGGUUUUACCCUAUGGUAG; listed as RNA, chemistry not given here; listed as Homo sapiens)	–	–	clearly decreased	increased	3.33 fold	2.54 fold	has not been observed	81.4±3.75%	22.42±1.88%	no change	1.76 fold	0.92 fold	has not been observed	increased	64.05±4.01%	31.3±4.96%	more resistant	more resistant
